# Experimental data as given in EP0032708A1, “Tryptophan derivative, process for preparing same and a pharmaceutical composition containing such derivative” (Tanabe Seiyaku Co., Ltd., priority 1980, dated 1981).
# Legend:
# [1] = test system: rat brain homogenate; assay: Preventive effect on lipid peroxide formation (thiobarbituric acid colorimetric method); assay type: biochemical; details: 10 % rat brain homogenate, pH 7.4, 30-minute incubation at 37°C
# Protocol: (ii) Preventive effect on lipid peroxide formation: An ethanol solution containing 10^-3 or 10-^4 M of a test compound was added to a mixture of 2.4 ml of 0.067 M potassium phosphate buffer solution (pH 7.4) and 0.5 ml of 10 % rat brain homogenate to adjust the final volume of the mixture to 3 ml. After 30-minute incubation of the mixture at 37°C, one ml of 20 % trichloroacetic acid was added thereto, and lipid peroxide formation was determined by the thiobarbituric acid colorimetric method (J. Robak et al., Viochem. Pharmacol., Vol. 25, page 2233 (1976). Suppression (%) of lipid peroxide formation of the test compound was calculated according to the following formula: [formula] • Note: ^* : group containing the test compound ^** : group containing an equal volume of ethanol instead of the test compound solution ΔOD was calculated as [(optical density measured at 532 nm) - (optical density measured at 600 nm)]
# [2] = test system: male SD rats; assay: Hypolipidemic activity (test compound in diet of rats for one week; serum lipids and liver weight); assay type: in vivo; details: test compound 0.10 w/w % in diet for one week
# Protocol: (i) Hypolipidemic activity:
# A test compound (0.10 w/w %) was added to a commercial diet, and male SD rats (body weight: 120 - 140 g , a group of 6 rats) were maintained on the diet for one week. After the experimental period, blood was collected from the tail vein of the rats under ether anesthesia. Thereafter, the liver was excised and weighed. Serum cholesterol and serum triglyceride were measured according to the methods of Zak (Amer. J. Clin. Pathol., Vol. 24, page 1307 (1954)) and Van Handel Zilversmit (J. Lab. & Clin. Med., Vol. 50, page 152 (1957)), respectively. Then, the increase (%) in liver weight and the decrease (%) in serum cholesterol or triglyceride were calculated according to the following formulae: [formula] [formula]
Compound,"Suppression (%) in lipid peroxide formation ([1]; Dose 10^-3M, 1000 µM) [%]","Suppression (%) in lipid peroxide formation ([1]; Dose 10^-4M, 100 µM) [%]",Decrease (%) in serum triglyceride [2] [%],Decrease (%) in serume cholesterol [2] [%],Increase (%) in liver weight [2] [%]
"CCOC(=O)C(C)(C)Oc1ccc(Cl)cc1 [Clofibrate, 2-(4-chlorophenoxy)-2-methylpropanoic acid ethyl ester, reference compound]",24.3,0.5,34,26,14
Cn1cc(C[C@H](NC(=O)SCc2ccccc2)C(=O)O)c2ccccc21 [N^1-methyl-Hα-benzylthiocarbonyl-L-tryptophan],65.2,9.0,30,15,5
Cc1ccc(CSC(=O)N[C@@H](Cc2c[nH]c3ccccc23)C(=O)O)cc1 [Nα-(4-methylbenzylthiocarbonyl)-L-tryptophan],72.7,10.2,48,14,0
